Read-outs that look alike come from different tables or passages of the source.
Assays:
AU565 (Her2 amp) = experiment: Growth inhibition GI50 in vitro (CCK8/MTT, 72 h); type: cell-based, human; settings: Homo sapiens, AU565; HER2 positive cell line; range of GI50; read-out: GI50 AU-565
PC-9 tumor cells = experiment: In vivo tumor growth inhibition, xenograft; design: species or system Bab/c nude mice; settings: Mus musculus, po, 456 h; 25 mg/kg intragastric once daily, day 19; read-out: TGI (%) PC-9
Description: (§1) Tumor xenograft models of immunodeficient mice are an effective tool to test the antitumor activity of the compound in vivo. Generally, the effectiveness of human tumor cell xenograft is positively correlated with the clinical treatment of human tumor. Bab/c immunodeficient mouse is one of the most commonly used xenograft animals with human tumor cells. In order to test whether the present compounds can inhibit the in vivo growth of the tumor cells expressing EGFR mutantion or HER2/ErbB2 overexpression, H1975, PC-9 and NCI-N87 cell lines were used in the experiments. When H1975, PC-9 and NCI-N87 cells were in growth logarithmic phase, they were digested with pancreatin. An appropriate amount of 1×RPMI1640 culture medium (serum-free) was added to stop digestion. The cells were collected to a 50 ml centrifuge tube (Corning), and centrifuged at 1700 rm for 3 min. The supernatant was discard, then the cells were suspended with 1×RPMI1640 culture medium and count the number. […] cells/mL was prepared and then placed on ice. 5˜10×10^6 (0.2 ml) cells were inoculated subcutaneously on the right side of the back of 6˜8 week old female Bab/c nude mice (about 20 g in weight). When the tumor average volume growed to 100˜200 mm^3, the mice were randomly divide into groups (3-6 mice per group), and marked by ear pierced tags and weighted. The test compounds and the reference compound (with a purity over 99% and individual impurity not higher than 0.2%) were formulated to emulsion suspension with CM (30% polyethylene glycol 400, 0.5% Tween-80 and 2.5% propylene glycol) respectively. Intragastric administration was continued once daily at a dosage of 25 mg/kg (0.1 ml/10 g mouse). The tumor was measured 3 times per week. When the average volume of the tumor in CM control group was up to 1500 mm^3 or after administration for 30 days, the experiment was ended.
(§2) The volume of tumor (V) was calculated as V=½*a*b^2 (a represents length of tumors, b represents width of tumors). Tumor growth inhibition (TGI) was calculated as: TGI (%)=100−(VT−VT0)/(VC−VC0)*100%; where VT0 and VT are the tumor volumes of the beginning and finish days of dosed groups; and VC0 and VC are the tumor volumes of the beginning and finish days for the control group, respectively.

H1975 tumor cells = experiment: In vivo tumor growth inhibition, xenograft; design: species or system Bab/c nude mice; settings: Mus musculus, NCI-H1975, po, 456 h; 25 mg/kg intragastric once daily, day 19; read-out: TGI (%) H1975
Description: as §1, §2

N87 (HER2 Amp) = experiment: Growth inhibition GI50 in vitro (CCK8/MTT, 72 h); type: cell-based, human; settings: Homo sapiens
SK-BR-3 (Her2 amp) = experiment: Growth inhibition GI50 in vitro (CCK8/MTT, 72 h); type: cell-based, human; settings: Homo sapiens, SK-BR-3; HER2 positive cell line; range of GI50; read-out: GI50 SK-BR-3
[1] = tested on: H460 (EGFR wt, Kras G61H); experiment: Growth inhibition GI50 in vitro (CCK8/MTT, 72 h); type: cell-based, human; settings: Homo sapiens, NCI-H460; EGFR wild type cell line; range of GI50; read-out: GI50 H460
[2] = tested on: A431 (EGFR WT, amplification and high expression); experiment: Growth inhibition GI50 in vitro (CCK8/MTT, 72 h); type: cell-based, human; settings: Homo sapiens, A-431; EGFR wild type cell line; range of GI50; read-out: GI50 A431
[3] = tested on: H1299 (EGFR wt, Nras Q61K); experiment: Growth inhibition GI50 in vitro (CCK8/MTT, 72 h); type: cell-based, human; settings: Homo sapiens, NCI-H1299; EGFR wild type cell line; range of GI50; read-out: GI50 H1299
A549 (EGFR WT) = experiment: Growth inhibition GI50 in vitro (CCK8/MTT, 72 h); type: cell-based, human; settings: Homo sapiens, A549
[4] = tested on: PC-9ER (EGFR delE746-A750/T790M); experiment: Growth inhibition GI50 in vitro (CCK8/MTT, 72 h); type: cell-based, human; settings: Homo sapiens, PC-9/ER; EGFR mutant cell line; range of GI50; read-out: GI50 PC9ER
PC-9 (EGFR dE746-A750) = experiment: Growth inhibition GI50 in vitro (CCK8/MTT, 72 h); type: cell-based, human; settings: Homo sapiens
H1975 (EGFR L858R/T790M) = experiment: Growth inhibition GI50 in vitro (CCK8/MTT, 72 h); type: cell-based, human; settings: Homo sapiens, NCI-H1975
HCC827 (EGFR dE746-A750) = experiment: Growth inhibition GI50 in vitro (CCK8/MTT, 72 h); type: cell-based, human; settings: Homo sapiens, HCC827; EGFR mutant cell line; range of GI50; read-out: GI50 HCC827
[5] = tested on: NCI-H1781 (HER2 exon 20 G776VC mutation); experiment: Growth inhibition GI50 in vitro (CCK8/MTT, 72 h); type: cell-based; settings: Homo sapiens, NCI-H1781; Table 16; 1000 nM to 0.03 nM serial dilution; read-out: GI50 H1781 (HER2 G776VC)
Protocol: Human lung adenocarcinoma cell line Calu-3 (ATCC) was cultured with 1×MEM complete medium (10% FBS, 1% double-antibiotics, 1% NEAA (Gibco), 2 mM glutamine and 1 mM of sodium pyruvate). Human breast cancer cell line SK-BR-3 was cultured with McCOY'S5A complete medium (10% FBS). Human colon cancer cell line SNU1040 (HER2 V777M positive) (ATCC) and human bronchoalveolar adenocarcinoma cell line NCI-H1781 (expressing HER2 exon 20 G776VC mutation) (ATCC) were cultured with 1×RPMI1640 complete medium (10% FBS), respectively.
(§3) Adherent cells were digested with 0.25% pancreatin-EDTA (Gibco). The suspension cells were collected by centrifugation. The supernatant was discard and the cell pellet was resuspended and counted. Different cell concentrations (5˜10×10^4 cells/mL) were prepared according to the growth cycle of each cell line and then seeded on a 96-well plate (Corning), 100 μL/well. The cells were incubated over night at 37° C., 5% CO2. The compounds were added to the cells on the second day with 2 wells in parallel. The final concentration of organic solvent shall not exceed 1%. The cells were continually incubated for 72 h, and then subjected to MTT assay.
(§4) The present compounds and the reference compounds were dissolved with DMSO (Sigma), respectively. […] The storage concentration of compounds was 10 mM and kept at −20° C. They were diluted by 2 times or 10 times with serial dilution before using.
(§5) Dojindo CCK8 reagent kit was used as MTT assay. […] FC meter was used as microplate reader.
(§6) Adherent cell culture medium was discard and immediately replaced with fresh prepared medium which contains 10% CCK8 reagent (100 μL/well). For the suspension cells, CCK8 was directly added to 10% of the final concentration. The cells were continually incubated for 1˜4 h. When the color of control wells turned to dark yellow, the absorption value was measured at OD450 nm. The cell growth rate was calculated according to the following formula: cell growth rate (%)=100*(T−T0)/(C−T0), T=optical density of drug treatment cell well—optical density of blank control well; T0=optical density of cell well before drug treatment—optical density of blank control well; C=optical density of cell well of solvent control group—optical density of blank control well. The concentration value of 50% inhibition of cell growth (GI50) was calculated. The experiment was independently repeated 1˜3 times, and subject to biological statistical analysis.
Furthermore, the present compounds (99, 136, 205, 211, 212, 213, 216, 229, 230, 231, 232, 233 and 236) were selected to carry out growth inhibition test for HER2/ERBB2 gene amplified or high expressed or mutant tumor cells. Afatinib and AZD9291 were used for references as second- and third-generation inhibitors of EGFR.
Each compound started at 1000 nM as an initial concentration and was diluted by 2 times with serial dilution to 0.03 nM. The GI50 value of each compound was calculated according to Test Example 1.3.

H292 (EGFR WT) = experiment: Growth inhibition GI50 in vitro (CCK8/MTT, 72 h); type: cell-based; settings: Homo sapiens, NCI-H292; Table 15; 1000 nM to 0.03 nM serial dilution; read-out: GI50 H292 (EGFR WT)
Description: EGFR wild type cell lines: human epidermal cancer cell line A431 (EGFR WT, amplification and high expression, from Shanghai Cell Bank of Chinese Academy of Sciences and ATCC), NSCLC cell lines NCI-H460 (EGFR WT, Kras G61H and PI3KCA E545K mutants, ATCC) and NCI-H1299 (EGFR WT, ATCC), melanoma cell line A375 (EGFR WT and BRAF V600E mutant, from Shanghai Cell Bank of Chinese Academy of Sciences, ATCC), human lung cancer cell line NCI-H292 (EGFR WT, from human lung mucoepidermoid carcinoma/lymphatic metastasis, purchased from Shanghai Cell Bank of Chinese Academy of Sciences) were cultured with 1×RPMI1640 complete medium which was supplement with 10% FBS. NSCLC cell line A549 (EGFR WT and Kras G12S mutant, from Shanghai Cell Bank of Chinese Academy of Sciences) was cultured with 1×Ham'S F12K complete medium which was supplement with 10% FBS, 1% double-antibiotics and 2 mM glutamine.
as §3, with “The” for “Adherent cells were digested with 0.25% pancreatin-EDTA (Gibco). The”
as §4, §5
as §6, with “The concentration value of 50% inhibition of cell growth (GI50) was calculated.” left out

[6] = Table 13, 72 h, read-out: Range of GI50 N87 (HER2 Amp)
[7] = Table 16, 1000 nM to 0.03 nM serial dilution, read-out: GI50 N87 (HER2 amp)
[8] = Table 13, 72 h, read-out: Range of GI50 A549 (EGFR WT)
[9] = Table 15, 1000 nM to 0.03 nM serial dilution, read-out: GI50 A549 (EGFR WT)
[10] = Table 13, 72 h, read-out: Range of GI50 PC-9 (EGFR dE746-A750)
[11] = Table 15, 1000 nM to 0.03 nM serial dilution, read-out: GI50 PC-9 (EGFR dE746-A750)
[12] = Table 13, 72 h, read-out: Range of GI50 H1975 (EGFR L858R/T790M)
[13] = Table 15, 1000 nM to 0.03 nM serial dilution, read-out: GI50 H1975 (EGFR L858R/T790M)

| GI50 [5] | GI50 (A549 (EGFR WT); [8]) | GI50 (A549 (EGFR WT); [9]) | GI50 (PC-9 (EGFR dE746-A750); [10]) | GI50 (PC-9 (EGFR dE746-A750); [11]) | GI50 (H1975 (EGFR L858R/T790M); [12]) | GI50 (H1975 (EGFR L858R/T790M); [13]) | GI50 (H292 (EGFR WT)) | Structure (SMILES) | GI50 (N87 (HER2 Amp); [6]) | GI50 (N87 (HER2 Amp); [7]) | other results |
| --- | --- | --- | --- | --- | --- | --- | --- | --- | --- | --- | --- |
|  |  |  |  |  |  |  |  | C=CC(=O)Nc1cc(Nc2cc(-c3cn(C)c4ccccc34)ncn2)c(OC)cc1N1CCC(N2CCN(C)CC2)CC1 [Compound 176, N-(4-methoxyl-5-(6-(1-methyl-1H-indol-3-yl)-pyrimidin-4-ylamino)-2-(4-(4-methylpiperazin-1-yl)-piperidin-1-yl)-phenyl)-acrylamide] |  |  | GI50 (AU565 (Her2 amp)): 100 to 1000 nM; inhibition in vivo at 25 mg/kg (PC-9 tumor cells): 98.6%; inhibition in vivo at 25 mg/kg (H1975 tumor cells): 98.2%; GI50 (N87 (HER2 Amp); HER2 positive cell line, range of GI50, read-out: GI50 N87): 10 to 100 nM; GI50 (SK-BR-3 (Her2 amp)): 10 to 100 nM; GI50 [1]: > 1000 nM; GI50 [2]: 100 to 1000 nM; GI50 [3]: > 1000 nM; GI50 (A549 (EGFR WT); EGFR wild type cell line, range of GI50, read-out: GI50 A549): > 1000 nM; GI50 [4]: 10 to 100 nM; GI50 (PC-9 (EGFR dE746-A750); EGFR mutant cell line, range of GI50, read-out: GI50 PC-9): < 10 nM; GI50 (H1975 (EGFR L858R/T790M); EGFR mutant cell line, range of GI50, read-out: GI50 H1975): 10 to 100 nM; GI50 (HCC827 (EGFR dE746-A750)): < 10 nM |
| 31.5 nM | > 1000 nM | > 1000 nM | < 10 nM | 7.89 nM | 10 to 100 nM | 19.6 nM | > 1000 nM | C=CC(=O)Nc1cc(Nc2nccc(-n3ccc4c(OC)cc(Br)cc43)n2)c(OC)cc1N(C)CCN(C)C [Compound 211, N-(5-(4-(4-methoxyl-6-bromo-1H-indol-1-yl)-pyrimidin-2-ylamino)-2-(2-(dimethylamino-ethyl)-methyl-amino)-4-methoxyl-phenyl)-acrylamide] | < 10 nM | 6.76 nM |  |
| 15.6 nM | > 1000 nM | > 1000 nM | < 10 nM | 6.82 nM | < 10 nM | 8.56 nM | > 1000 nM | C=CC(=O)Nc1cc(Nc2nccc(-n3ccc4c(OC)cc(F)cc43)n2)c(OC)cc1N(C)CCN(C)C [Compound 212, N-(5-(4-(4-methoxyl-6-fluoro-1H-indol-1-yl)-pyrimidin-2-ylamino)-2-(2-(dimethylamino-ethyl)-methyl-amino)-4-methoxyl-phenyl)-acrylamide] | < 10 nM | 2.67 nM |  |
| 15.6 nM | > 1000 nM | > 1000 nM | < 10 nM | 7.83 nM | < 10 nM | 9.8 nM | > 1000 nM | C=CC(=O)Nc1cc(Nc2nccc(-n3ccc4c(OC)cc(Cl)cc43)n2)c(OC)cc1N(C)CCN(C)C [Compound 213] | < 10 nM | 1.95 nM |  |
